Measurements taken from US7412284B2, “Apparatus for electroporation mediated delivery for drugs and genes” (Genetronics, Inc., priority 1997, dated 2008).

Experiments:
Head and Neck Cancer = experiment: Clinical study of EPT with intralesional bleomycin for head and neck cancers; assay type: in vivo, humans; design: key to Response Status: Complete Response (CR): Disappearance of all evidence of tumor as determined by physical examination, and/or biopsy.; Partial Response (PR): 50% or greater reduction in tumor volume.; No Response (NR): less than 50% reduction in tumor volume
Method: All of the following patients were treated with bleomycin intratumoral injection and needle arrays of different diameters with six needles. The voltage was set to achieve a nominal electric field strength of 1300 V/cm (the needle array diameter was multiplied by 1300 to give the voltage the generator was set at). The pulse length was 100 μs.
The study was designed as a single center feasibility clinical study in which the efficacy of the EPT procedure in combination with intralesional bleomycin was compared to that for traditional surgery, radiation, and/or systemic chemotherapy. Approximately 50 study subjects were enrolled in the study. All study subjects were assessed prior to treatment by examination and biopsy. Postoperative assessment of study subjects was weekly for 4-6 weeks, and monthly thereafter for a total of 12 months. Approximately 8 to 12 weeks following therapy, a biopsy of the tumor site was performed. Use of CT or MRI scans was utilized in accordance to standard medical follow-up evaluation of HNC subjects.
Tumor evaluation includes measuring the tumor diameter (in centimeters) and estimating its volume (in cubic centimeters). Prior to intratumoral administration of bleomycin sulfate, the tumor site is anesthetized with 1% lidocaine (xylocaine) and 1:100,000 epinephrine. The concentration of bleomycin sulfate injected is 4 units per milliliter, up to a maximum dose of 5 units per tumor. If more than one tumor per subject is treated, a total of 20 units per subject should not be exceeded. The dose of bleomycin administered is to be 1 unit/cm^3 of calculated tumor volume. Approximately ten minutes subsequent to the injection of bleomycin sulfate, the applicator is placed on the tumor and electrical pulses initiated. Each application or an initiation of electrical pulses is referred to as a sequence. The use of EPT is not a contraindication to any subsequent palliative treatment required by the subject.
In this study, success was defined as significant tumor regression in a period of 16 weeks or less without major side effects seen with traditional therapy. There are three possible response outcomes:
Complete Response (CR): Disappearance of all evidence of tumor as determined by physical examination, and/or biopsy. • Partial Response (PR): 50% or greater reduction in tumor volume. • No Response (NR): less than 50% reduction in tumor volume.
If the tumor increases (25% tumor volume) in size, other therapy, if indicated, was instituted per subject's desire.

[1] = system: Cutaneous and Subcutaneous Cancer; experiment: Clinical studies using bleomycin sulfate and EPT, cutaneous and subcutaneous cancer; assay type: in vivo, humans
Panc-3 = experiment: EPT of Panc-3 with neocarcinostatin, pre- and post-pulse injection; assay type: in vivo, nude mice
Description: The Panc-3 and NSCLC models were utilized with the drug neocarcinostatin (NCS) following the same procedures as outlined above. […] It was believed that due to the low isoelectric point of NCS, electrostatic interaction prevented the drug from entering the tumor cell. Therefore, the experiment was repeated by pulsing first and injecting NCS post-pulse.

[2] = Adenocarcinoma, 2 patients, 2 lesions, IT 2 to 8 Units
[3] = Squamous Cell, 7 patients, 7 lesions, IT 1 to 16 Units
[4] = enrollment start 01/20/95, Basal Cell, 18 patients, 54 lesions, IT 0.5 to 3 Units
[5] = enrollment start 01/20/95, Kaposi Sarcoma, 1 patient, 4 lesions, IT 1 to 2 Units
[6] = enrollment start 01/20/95, Met. Melanoma, 10 patients, 84 lesions, IT 0.2 to 2 Units
[7] = enrollment start 01/20/95, Squamous Cell, 1 patient, 1 lesion, IT 1.5 Units
[8] = enrollment start 01/20/95, Summary, 30 patients, 146 lesions
[9] = enrollment start 02/18/94, Basal Cell, 2 patients, 6 lesions, IV 22 to 23 Units
[10] = enrollment start 02/18/94, Met. Breast Adenocarcinoma, 1 patient, 2 lesions, IV 17 Units
[11] = enrollment start 02/18/94, Met. Melanoma, 3 patients, 10 lesions, IV 19 to 23 Units
[12] = enrollment start 08/01/96, Basal Cell, 7 patients, 8 lesions, IT 0.8 to 0.64 Units
[13] = enrollment start 08/01/96, Summary, 7 patients, 8 lesions

For bleomycin sulfate, the “Tumor Response CR %” value (Head and Neck Cancer; [2]) was 0%, the “Tumor Response NR %” value (Head and Neck Cancer; [2]) was 100% and the “Tumor Response PR %” value (Head and Neck Cancer; [2]) was 100%. The “Tumor Response CR %” value (Head and Neck Cancer; [3]) was 43%, the “Tumor Response NR %” value (Head and Neck Cancer; [3]) was 29% and the “Tumor Response PR %” value (Head and Neck Cancer; [3]) was 29%. For the same molecule, the “Response Status” value (Head and Neck Cancer; Subject 1/J-S, first response (week 2)) was “PR (Partial Response (PR): 50% or greater reduction in tumor volume.)”, the “Response Status” value (Head and Neck Cancer; Subject 1/J-S, second response (week 8)) was “CR” and the “Time to Response (Week)” value (Head and Neck Cancer; Subject 1/J-S, to CR) was 8 Week. For the same molecule, the “Time to Response (Week)” value (Head and Neck Cancer; Subject 1/J-S, to PR) was 2 Week, the “Response Status” value (Head and Neck Cancer; Subject 2/G-C) was “PR (Partial Response (PR): 50% or greater reduction in tumor volume.)” and the “Time to Response (Week)” value (Head and Neck Cancer; Subject 2/G-C) was 4 Week. The “Response Status” value (Head and Neck Cancer; Subject 3/L-O) was “CR”, the “Time to Response (Week)” value (Head and Neck Cancer; Subject 3/L-O) was 3 Week and the “Response Status” value (Head and Neck Cancer; Subject 4/G-R, first response (week 4)) was “PR (Partial Response (PR): 50% or greater reduction in tumor volume.)”. The “Response Status” value (Head and Neck Cancer; Subject 4/G-R, second response (week 9)) was “CR”, the “Time to Response (Week)” value (Head and Neck Cancer; Subject 4/G-R, to CR) was 9 Week and the “Time to Response (Week)” value (Head and Neck Cancer; Subject 4/G-R, to PR) was 4 Week. The “Response Status” value (Head and Neck Cancer; Subject 5/R-H, segmented treatment) was “NR** (No Response (NR): less than 50% reduction in tumor volume.)”, the “Response Status” value (Head and Neck Cancer; Subject 6/C-B) was “PR (Partial Response (PR): 50% or greater reduction in tumor volume.)” and the “Time to Response (Week)” value (Head and Neck Cancer; Subject 6/C-B) was 2 Week. For the same molecule, the “Response Status” value (Head and Neck Cancer; Subject 7/C-J, segmented treatment) was “NR** (No Response (NR): less than 50% reduction in tumor volume.)”, the “Response Status” value (Head and Neck Cancer; Subject 8/L-J) was “PR (Partial Response (PR): 50% or greater reduction in tumor volume.)” and the “Time to Response (Week)” value (Head and Neck Cancer; Subject 8/L-J) was 4 Week. The “Time to Response (Week)” value (Head and Neck Cancer; Subject 9/J-T) was 7 Week, the “Response Status” value (Head and Neck Cancer; Subject 9/J-T, segmented treatment) was “PR** (Partial Response (PR): 50% or greater reduction in tumor volume.)” and the “subjects with a complete response” value (Head and Neck Cancer; Subject No. 1, 3 and 4, of 9 subjects) was “Three”. For the same molecule, the “subjects with a partial response” value (Head and Neck Cancer; Subject No. 2, 6, 8 and 9, of 9 subjects) was “four”, the “subjects with no response” value (Head and Neck Cancer; Subject No. 5 and 7, of 9 subjects) was “two” and the “Tumor Response CR %” value (Head and Neck Cancer; Summary, 9 patients, 9 lesions) was 33%. The “Tumor Response NR %” value (Head and Neck Cancer; Summary, 9 patients, 9 lesions) was 22%, the “Tumor Response PR %” value (Head and Neck Cancer; Summary, 9 patients, 9 lesions) was 44% and the “subjects who died prior to reaching week 12” value (Head and Neck Cancer; due to progressive disease or complications unrelated to study treatment (Subject No. 2, 5 and 7)) was “Three”. For the same molecule, the “Tumor Response CR %” value [1, 4] was 94%, the “Tumor Response NR %” value [1, 4] was 0% and the “Tumor Response PR %” value [1, 4] was 9%. The “Tumor Response CR %” value [1, 5] was 100%, the “Tumor Response NR %” value [1, 5] was 0% and the “Tumor Response PR %” value [1, 5] was 0%. The “Tumor Response CR %” value [1, 6] was 91%, the “Tumor Response NR %” value [1, 6] was 2% and the “Tumor Response PR %” value [1, 6] was 9%. The “Tumor Response CR %” value [1, 7] was 0%, the “Tumor Response NR %” value [1, 7] was 0% and the “Tumor Response PR %” value [1, 7] was 100%. The “Tumor Response CR %” value [1, 8] was 89%, the “Tumor Response NR %” value [1, 8] was 1% and the “Tumor Response PR %” value [1, 8] was 10%. The “Tumor Response CR %” value [1, 9] was 17%, the “Tumor Response NR %” value [1, 9] was 0% and the “Tumor Response PR %” value [1, 9] was 83%. The “Tumor Response CR %” value [1, 10] was 100%, the “Tumor Response NR %” value [1, 10] was 0% and the “Tumor Response PR %” value [1, 10] was 0%. For the same molecule, the “Tumor Response CR %” value [1, 11] was 30%, the “Tumor Response NR %” value [1, 11] was 50% and the “Tumor Response PR %” value [1, 11] was 20%. For the same molecule, the “Tumor Response CR %” value [1, 12] was 67%, the “Tumor Response NR %” value [1, 12] was 0% and the “Tumor Response PR %” value [1, 12] was 33%. For the same molecule, the “Tumor Response CR %” value [1, 13] was 67%, the “Tumor Response NR %” value [1, 13] was 0% and the “Tumor Response PR %” value [1, 13] was 33%.

B1: neocarcinostatin (protein, UniProt P0A3R9 35-147, looked up)
Neocarzinostatin: AAPTATVTPSSGLSDGTVVKVAGAGLQAGTAYDVGQCAWVDTGVLACNPADFSSVTADANGSASTSLTVRRSFEGFLFDGTRWGTVDCTTAACQVGLSDAAGNGPEGVAISFN
In the case of B1, the “post-pulse versus pre-pulse administration” value (Panc-3; comparison of FIGS. 11a and 11b) is reported as “more effective than pre-pulse administration”, the “final vs initial tumor volume” value (Panc-3; post-pulse injection, day 13, mice ID 1, 2, 4 and 7 of 7, appeared to be due to edema) is reported as “an increase in tumor volume was observed” and the tumor volume (Panc-3; post-pulse injection, day 23, separate group of 5 mice) is reported as “all mice showed a marked reduction in tumor volume”. The “reduction of tumor size” value (Panc-3; pre-pulse dosing) was “not effective in reducing tumor size at all”.
